Among the data in patent US10124004B2, “Pyrido[3,4-d]pyrimidine derivative and pharmaceutically acceptable salt thereof” (Teijin Pharma Limited, priority 2015, dated 2018) are IC50 values, retold here.

The target in assay [1] is T1, CDK4/cyclin D3 (Homo sapiens, UniProt P11802).
T1 construct: purchased Carna Biosciences, Inc. QS S Assist CDK4/Cyclin D3_FP Kit
Description: Human CDK4/cyclin D3 inhibitory activity (QS S Assist CDK4/Cyclin D3_FP Kit, IMAP fluorescence polarization). The assay is classed as biochemical. Summed up:
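Percent inhibition, relative to DMSO with and without enzyme, was curve-fitted to give IC50 from polarization (ex 485, em 535 nm). The 45-min room-temperature reaction used 12.5-25 ng/well enzyme, kit ATP/substrate/metal mix, and HEPES pH 7.4 buffer with Tween20 and DTT, followed by 30-min IMAP binding in the dark.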
A general note: In fluorescence polarisation assays a small probe gives low polarisation when free and higher when bound to something large.

Assay [2] concerns the target T2, CDK2/cyclin A2 (Homo sapiens, UniProt P24941).
T2 construct: purchased Carna Biosciences, Inc. QS S Assist CDK2/Cyclin A2_FP Kit
Description: Human CDK2/cyclin A2 inhibitory activity (QS S Assist CDK2/Cyclin A2_FP Kit, IMAP fluorescence polarization). It is filed as biochemical. How it is done:
Human CDK2/Cyclin A^2 Inhibitory Activity
Each compound was analyzed for CDK2/cyclin A2 inhibitory activity with an assay kit (QS S Assist CDK2/Cyclin A2_FP Kit, available from Carna Biosciences, Inc.). This assay kit determines kinase activity on the basis of the IMAP technology by Molecular Devices. Specifically, the kinase activity is determined through quantification of a variation in fluorescent polarization caused by binding of a kinase-phosphorylated fluorescent substance to an IMAP-binding reagent.
An assay buffer was prepared by 10-fold dilution of the 10× assay buffer attached to the kit with distilled water, and each solution was prepared with the assay buffer. The assay buffer contained 20 mM HEPES (pH 7.4), 0.01% Tween 20, and 2 mM dithiothreitol. A test compound solution was prepared by dilution of the test compound with dimethyl sulfoxide (DMSO) to a concentration 100 times higher than the final concentration and then 25-fold dilution with the assay buffer to a concentration four times higher than the final concentration. An ATP/substrate/Metal solution was prepared by five-fold dilution of the 5×ATP/substrate/Metal solution attached to the kit with the assay buffer. An enzyme solution was prepared by dilution of the CDK2/cyclin A2 attached to the kit with the assay buffer to a concentration twice higher than the final concentration (final concentration of CDK2/cyclin A2: 2.5 ng/well). A detection reagent was prepared by five-fold dilution of 5×IMAP-binding buffer A with distilled water and 400-fold dilution of the IMAP-binding reagent with the diluted buffer.
The test compound solution (5 μL/well) and the ATP/substrate/Metal solution (5 μL/well) were added to a 384-well plate, and the enzyme solution or the assay buffer (10 μL/well) was added to the plate (total amount of the reaction mixture: 20 μL/well) for initiation of enzymatic reaction. […] The reaction was performed at room temperature for 60 minutes, and the detection reagent (60 μL/well) was then added to the plate, followed by further reaction for 30 minutes at room temperature under light shielding conditions. Subsequently, fluorescent polarization was determined with a microplate reader at an excitation wavelength of 485 nm and an emission wavelength of 535 nm.
The percent inhibition of enzyme activity was calculated for each test compound (note: enzyme activity=100% in the case of addition of the enzyme solution and addition of DMSO instead of the test compound solution, whereas enzyme activity=0% in the case of addition of the assay buffer instead of the enzyme solution and addition of DMSO instead of the test compound solution). The percent inhibition of enzyme activity was fitted to a dose-response curve, to determine a 50% inhibitory concentration against CDK2/cyclin A2.
In each table, “+++” corresponds to IC50<10 nM, “++” 10 nM≤IC50<100 nM, and “+” 100 nM≤IC50.

The mark [3] stands for this setting: 50% inhibitory concentration against CDK4/cyclin D3, given as class symbol.
[4] abbreviates: 50% inhibitory concentration against CDK2/cyclin A2, given as class symbol.

Like-named read-outs stand apart in the source and are kept apart here. Bounds are passed on as bounds.

T1 sequence (P11802 whole entry): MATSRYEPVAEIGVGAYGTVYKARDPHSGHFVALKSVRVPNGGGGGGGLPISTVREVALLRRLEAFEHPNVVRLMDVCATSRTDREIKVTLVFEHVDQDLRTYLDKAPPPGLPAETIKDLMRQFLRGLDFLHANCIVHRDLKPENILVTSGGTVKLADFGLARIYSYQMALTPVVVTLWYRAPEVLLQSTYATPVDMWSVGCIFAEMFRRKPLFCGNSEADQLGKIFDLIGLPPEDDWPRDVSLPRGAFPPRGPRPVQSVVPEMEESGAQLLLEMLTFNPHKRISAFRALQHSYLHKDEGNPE
T1 sequence (P30281 whole entry partner): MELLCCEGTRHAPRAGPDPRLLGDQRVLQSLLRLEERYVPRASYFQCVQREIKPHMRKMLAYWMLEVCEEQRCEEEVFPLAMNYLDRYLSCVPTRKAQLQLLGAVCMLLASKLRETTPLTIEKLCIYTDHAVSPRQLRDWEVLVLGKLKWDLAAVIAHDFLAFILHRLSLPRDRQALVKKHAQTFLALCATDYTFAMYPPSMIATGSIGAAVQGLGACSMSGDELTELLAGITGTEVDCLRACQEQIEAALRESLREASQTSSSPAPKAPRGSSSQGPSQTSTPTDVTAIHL

In the case of `CC(C)Nc1nc(C(C)O)cc2cnc(Nc3ccc(N4CCCC(O)C4)nn3)nc12` (single isomer, unassigned) [Compound 581], the IC50 in assay [1] (Human CDK4/cyclin D3 inhibitory activity, read-out: CDK4 Activity symbol) is under 10 nM; in assay [2] (Human CDK2/cyclin A2 inhibitory activity, read-out: CDK2 Activity symbol) it was at least 100 nM.

With `CC(C)Nc1nc(C2CCCO2)cc2cnc(Nc3ccc(N4CCNCC4)nn3)nc12` (single isomer, unassigned) [Compound 713], the results for the IC50 in assay [1] (setting [3]) and in assay [2] (setting [4]) were under 10 nM and at least 100 nM, respectively.

As for `CC(C)Nc1nc(C2CCCO2)cc2cnc(Nc3ccc(N4CCNCC4)nn3)nc12` (single isomer, unassigned) [Compound 714], the IC50 in assay [1] (setting [3]) and in assay [2] (setting [4]) was at least 100 nM throughout.

`CC(C)Nc1nc(C(C)O)cc2cnc(Nc3ccc(N4CCC(O)C5(CC5)C4)nn3)nc12` (single isomer, unassigned) [Compound 724]: the IC50 in assay [1] (setting [3]) is under 10 nM; in assay [2] (setting [4]) it was at least 100 nM.

`CC(C)Nc1nc(C(C)O)cc2cnc(Nc3ccc(N4CCC(O)C5(CC5)C4)nn3)nc12` (single isomer, unassigned) [Compound 725]: the IC50 in assay [1] (setting [3]) was under 10 nM; in assay [2] (setting [4]) it was at least 100 nM.

`CC(C)Nc1nc(C2CCCO2)cc2cnc(Nc3ccc(CN4CCNCC4)cn3)nc12` (single isomer, unassigned) [Compound 729]: the IC50 in assay [1] (setting [3]) was under 10 nM; in assay [2] (setting [4]) it was at least 100 nM.

Take `CC(C)Nc1nc(C2CCCO2)cc2cnc(Nc3ccc(CN4CCNCC4)cn3)nc12` (single isomer, unassigned) [Compound 730]: the IC50 in assay [1] (setting [3]) was 10 to 100 nM; in assay [2] (setting [4]), at least 100 nM.

Consider `CC(C)Nc1nc(C(C)O)cc2cnc(Nc3ccc(C4CNCCO4)cn3)nc12` (single isomer, unassigned) [Compound 735], for which the IC50 was under 10 nM in assay [1] (setting [3]) and at least 100 nM in assay [2] (setting [4]).

For `CC(C)Nc1nc(C(C)O)cc2cnc(Nc3ccc(C4CNCCO4)cn3)nc12` (single isomer, unassigned) [Compound 736], the IC50 in assay [1] (setting [3]) was under 10 nM; in assay [2] (setting [4]) it was at least 100 nM.

Regarding `CC(C)Nc1nc(C2CCOC2)cc2cnc(Nc3ccc(N4CCNCC4=O)cn3)nc12` (single isomer, unassigned) [Compound 773], the figures for the IC50 in assay [1] (setting [3]) and in assay [2] (setting [4]) were under 10 nM and at least 100 nM, respectively.

For the compound `CC(C)Nc1nc(C2CCOC2)cc2cnc(Nc3ccc(N4CCNCC4=O)cn3)nc12` (single isomer, unassigned) [Compound 774], the results for the IC50 in assay [1] (setting [3]) and in assay [2] (setting [4]) were 10 to 100 nM and at least 100 nM, respectively.

With `CC(C)Nc1nc(C(C)O)cc2cnc(Nc3ccc(N4CCNCC4C(F)(F)F)cn3)nc12` (single isomer, unassigned) [Compound 775], the IC50 in assay [1] (setting [3]) was under 10 nM; in assay [2] (setting [4]), at least 100 nM.

For the compound `CC(C)Nc1nc(C(C)O)cc2cnc(Nc3ccc(N4CCNCC4C(F)(F)F)cn3)nc12` (single isomer, unassigned) [Compound 776], the IC50 was under 10 nM in assay [1] (setting [3]) and at least 100 nM in assay [2] (setting [4]).

With `CC(C)Nc1nc(C(C)O)cc2cnc(Nc3ccc(N4CCN(C(C)CO)CCC4=O)cn3)nc12` (single isomer, unassigned) [Compound 809], the IC50 in assay [1] (setting [3]) is under 10 nM; in assay [2] (setting [4]) it was 10 to 100 nM.

In the case of `CC(C)Nc1nc(C(C)O)cc2cnc(Nc3ccc(N4CCN(C(C)CO)CCC4=O)cn3)nc12` (single isomer, unassigned) [Compound 810], the IC50 in assay [1] (setting [3]) is under 10 nM; in assay [2] (setting [4]), at least 100 nM.

Take `CC(C)Nc1nc(C(C)O)cc2cnc(Nc3ccc(OC4CCC(C(=O)O)CC4)cn3)nc12` (single isomer, unassigned) [Compound 831]: the IC50 in assay [1] (setting [3]) was 10 to 100 nM; in assay [2] (setting [4]) it was at least 100 nM.

As to `CC(C)Nc1nc(C(C)O)cc2cnc(Nc3ccc(OC4CCC(C(=O)O)CC4)cn3)nc12` (single isomer, unassigned) [Compound 832], the IC50 in assay [1] (setting [3]) is 10 to 100 nM; in assay [2] (setting [4]) it was at least 100 nM.

With `CC(C)Nc1nc(C(C)O)cc2cnc(Nc3ccc(C4COCCN4)cn3)nc12` (single isomer, unassigned) [Compound 865], the IC50 in assay [1] (setting [3]) is under 10 nM; in assay [2] (setting [4]), at least 100 nM.

Take `CC(C)Nc1nc(C(C)O)cc2cnc(Nc3ccc(C4COCCN4)cn3)nc12` (single isomer, unassigned) [Compound 866]: the IC50 in assay [1] (setting [3]) is under 10 nM; in assay [2] (setting [4]) it was at least 100 nM.

For `CNCCOc1ccc(Nc2ncc3cc(C(C)O)nc(NC4(C)CCCOC4)c3n2)nc1` (single isomer, unassigned) [Compound 869], the IC50 in assay [1] (setting [3]) was under 10 nM; in assay [2] (setting [4]), 10 to 100 nM.

`CNCCOc1ccc(Nc2ncc3cc(C(C)O)nc(NC4(C)CCCOC4)c3n2)nc1` (single isomer, unassigned) [Compound 870]: the IC50 in assay [1] (setting [3]) was under 10 nM; in assay [2] (setting [4]), at least 100 nM.

As to `Cc1nc(Nc2ncc3cc(C4CCOC4)nc(NC(C)C)c3n2)ccc1N1CCNCC1=O` (single isomer, unassigned) [Compound 875], the IC50 in assay [1] (setting [3]) was under 10 nM; in assay [2] (setting [4]), at least 100 nM.

`Cc1nc(Nc2ncc3cc(C4CCOC4)nc(NC(C)C)c3n2)ccc1N1CCNCC1=O` (single isomer, unassigned) [Compound 876]: the IC50 in assay [1] (setting [3]) was under 10 nM; in assay [2] (setting [4]), at least 100 nM.

Regarding `c1cc(N2CCNCC2)nnc1Nc1ncc2cc(C3CCOC3)nc(N[C@H]3CCCOC3)c2n1` (single isomer, unassigned) [Compound 939], the IC50 in assay [1] (setting [3]) was under 10 nM; in assay [2] (setting [4]), at least 100 nM.

With `c1cc(Nc2ncc3cc(C4CCOC4)nc(N[C@H]4CCCOC4)c3n2)ncc1CN1CCNCC1` (single isomer, unassigned) [Compound 940], the IC50 in assay [1] (setting [3]) is under 10 nM; in assay [2] (setting [4]) it was at least 100 nM.

`c1cc2c(nc1Nc1ncc3cc(C4CCOC4)nc(N[C@H]4CCCOC4)c3n1)CCNC2` (single isomer, unassigned) [Compound 942]: the IC50 in assay [1] (setting [3]) is under 10 nM; in assay [2] (setting [4]) it was at least 100 nM.

In the case of `c1cc2c(nc1Nc1ncc3cc(C4CCOC4)nc(NC4CCCOC4)c3n1)CCNC2` (single isomer, unassigned) [Compound 943], the IC50 in assay [1] (setting [3]) was 10 to 100 nM; in assay [2] (setting [4]) it was at least 100 nM.

Regarding `CC(C)Nc1nc(C(C)O)cc2cnc(Nc3ccc(N4CCNC(C(F)(F)F)C4)nn3)nc12` (single isomer, unassigned) [Compound 989], the IC50 is under 10 nM in assay [1] (setting [3]) and at least 100 nM in assay [2] (setting [4]).

As to `CC(C)Nc1nc(C(C)O)cc2cnc(Nc3ccc(N4CCNC(C(F)(F)F)C4)nn3)nc12` (single isomer, unassigned) [Compound 990], the IC50 was under 10 nM in assay [1] (setting [3]) and at least 100 nM in assay [2] (setting [4]).

In the case of `CCCNc1nc(C2CCCO2)cc2cnc(Nc3ccc(N4CCNCC4)cn3)nc12` (single isomer, unassigned) [Compound 1025], the IC50 in assay [1] (setting [3]) and in assay [2] (setting [4]) was at least 100 nM throughout.

As to `CCCNc1nc(C2CCCO2)cc2cnc(Nc3ccc(N4CCNCC4)cn3)nc12` (single isomer, unassigned) [Compound 1026], the results for the IC50 in assay [1] (setting [3]) and in assay [2] (setting [4]) were 10 to 100 nM and at least 100 nM, respectively.

`CCNc1nc([C@@H](C)O)cc2cnc(Nc3ccc(CN4CCN(C(C)CO)CC4)cn3)nc12` (single isomer, unassigned) [Compound 1088]: the IC50 in assay [1] (setting [3]) was under 10 nM; in assay [2] (setting [4]), at least 100 nM.

Turning to `CCCNc1nc([C@@H](C)O)cc2cnc(Nc3ccc(CN4CCCC(O)C4)cn3)nc12` (stereo partly drawn) [Compound 1082], the IC50 in assay [2] (setting [4]) was at least 100 nM.

In turn, `CC(C)Nc1nc([C@@H](C)O)cc2cnc(Nc3ccc(N4CCN(C(=O)C5CCCO5)CC4)nn3)nc12` (stereo partly drawn) [Compound 1184] showed an IC50 in assay [2] (setting [4]) of at least 100 nM.
